Reference: patent US20220098197A1, “SALTS OF HETEROCYCLIC COMPOUND AND USE THEREOF” (priority 2019, published 2022)

Tests used:
[1] = test system: NF-κB signalling pathway in RAW264.7 macrophages; assay: Western blotting of NF-κB signalling pathway, RAW264.7; type: cell-based, mouse; settings: CT-NA 0.5, 1.0, 10, or 100 μM, LPS (100 ng/ml)
Method: The method for total protein extraction and Western blotting determination was as follows. The lung tissue was homogenized in RIPA buffer (0.5M Tris-HCl, pH 7.4, 1.5M NaCl, 2.5% deoxycholic acid, 10% NP-40, 10 mM EDTA) containing protease and phosphatase inhibitors (Sigma-Aldrich, St. Louis, Mo.). RAW264.7 macrophages were seeded into two 6-well plates at 70-80% confluence. After overnight starvation with serum-free RPMI-1640 medium, RAW264.7 macrophages were pretreated with CT-NA (0.5, 1, 10 and 100 μM) for 1 hour. Thereafter, one 6-well plate was treated with LPS (100 ng/ml) for 1 hour, and the other was treated with PGD2 (10 μM) for 1 hour. After washing three times with PBS, the cells were directly lysed for 30 minutes with shaking in RIPA buffer containing protease and phosphatase inhibitors in an ice environment. Then, the lysate was centrifuged at 12,300×g for 15 minutes at 4° C., and the supernatant was collected. […] was performed to measure protein concentration. Equal amounts of protein (30 μg) were resolved on 12% SDS-PAGE and transferred to 0.45 um polyvinylidene fluoride (PVDF) membranes (Millipore, Bedford, Mass.). The membranes were blocked with 5% (wt/vol) skimmed milk powder at room temperature for 1-2 hrs to reduce non-specific binding. […]

RAW 264.7 macrophages = assay: In vitro cytokines assay via ELISA, CSE- and PGD2-stimulated macrophages; type: cell-based, mouse; settings: CT-NA 10 and 100 μM, p<0.01
Method: The cigarette smoke generated from 3R4F research grade cigarettes was passed through 50 ml PBS by a vacuum pump. Five cigarettes were used to make smoke that passed 50 ml PBS, and each cigarette was lit for 5 minutes. The control solution was prepared in the absence of cigarettes by using a similar method. After extraction, CSE was stored at −80° C.
RAW 264.7 macrophages were added to two 12-well plates. Thereafter, the medium of the 12-well plate was replaced with serum-free RPMI-1640 medium, and the macrophages were incubated for 10-12 hrs and then exposed to CT-NA (10 and 100 μM) for 1 hour. One hour later, one 12-well plate was treated with CSE (4%) and the other with PGD2 (10 μM) for 24 hrs. After the treatment, the supernatant of the treated cells was collected to measure the protein levels of TNF-α, IL-1β, IL-6, KC and IL-10 extracellularly secreted using ELISA kits according to the method of the instructions. Subsequently, RNA samples from each treated plate were extracted and reverse-transcripted into cDNA with HiScript5xQRTSuperMix, and then subjected to RT-PCR. RT-PCR was performed with the BioRad CFX96 Touch™ Real-Time PCR Detection System (BioRad, USA) using AceQ® qPCR SYBR Green Master Mix. And the threshold cycle numbers were obtained using BioRad CFX Manager Software. The primers used for RT-PCR reaction were shown in Table 1. β-actin was used as an internal control. The RT-PCR reactions were triplicated and the relative expression of target mRNA was normalized by the respective β-actin.

LPS-induced ALI mice = assay: LPS-induced ALI model: oxygen saturation (SO2); type: in vivo, Balb/c mice; settings: CT-NA 10 or 30 mg/kg (P<0.01, dose-dependent), Dex 1 mg/kg; 24 hrs after LPS
Method: Specific pathogen-free (SPF) Balb/c mice (♂/♀; 20-26 g; 8 weeks old) were purchased from Shanghai SIPPR-BK Experimental Animal Co., Ltd. Mice were kept in an isolated ventilated cage in an environment of 40-60% humidity, 24±2° C., and 12 hrs/12 hrs dark-light cycle, and had free access to food and water. The method for preparing the LPS-induced ALI model was simply described as follows. The mice were randomly divided into a control group (12 mice) and an LPS group (48 mice). The LPS group (48 mice) was further divided into four subgroups (12 mice in each subgroup). The unanaesthetized mice in the four subgroups of LPS were intragastrically administered with normal saline (NS), CT-NA at 10 mg/kg or 30 mg/kg, and Dex at 1 mg/kg, respectively. One hour later, the mice were anesthetized with sodium pentobarbital (intraperitoneal injection at 40 mg/kg), and then subjected to intratracheal instillation of NS to control group and LPS (4 mg/kg) to all LPS subgroups. 12 hrs later, the unanaesthetized mice of the LPS group were intragastrically administered with NS, CT-NA at 10 mg/kg or 30 mg/kg, or Dex at 1 mg/kg, respectively (FIG. 16). […] 24 hrs after LPS challenge, the oxygen saturation (SO2) of all mice was measured by a Moor VMS-OXY™ instrument which measured SO2 (%) in the microcirculation at the wavelength range of 500 to 650 nm. […]

CN([C@@H]1CCc2c(CC(=O)[O-])c3cccnc3n2C1)S(=O)(=O)c1ccc(F)cc1.[Na+] [Sodium salt hydrate]
degradation of IκBα and P65 induced by LPS [1]: strongly reversed
LPS-induced IκBα and P65 activation ([1]; dose-dependent): reduced
protein levels of IL-1β, IL-6, TNF-α and KC, CSE-stimulated (RAW 264.7 macrophages; 1 h pretreatment, CSE (4%) 24 hrs): inhibited
protein levels of IL-1β, IL-6, TNF-α and KC, PGD2-stimulated (RAW 264.7 macrophages; 1 h pretreatment, PGD2 (10 μM) 24 hrs): inhibited
CSE-induced inhibition of IL-10, protein (RAW 264.7 macrophages; CSE (4%), dose-dependent): reversed
PGD2-induced inhibition of IL-10, protein (RAW 264.7 macrophages; PGD2 (10 μM), dose-dependent): reversed
oxygen saturation (SO2) (LPS-induced ALI mice): significantly increased
